Experimental data from PubChem BioAssay (NCI).
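Cells were grown in 96-well plates and exposed to each compound for 48 hours at five concentrations; endpoints were interpolated linearly between bracketing concentrations, or set to the highest concentration if not reached. At the TGI there is no net growth.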

Tests used:
Test in all cases: NCI-60 cell line screen, 48 h
786-0 renal = tested on: 786-0 renal
SR leukemia = tested on: SR leukemia
MDA-MB-435 = tested on: MDA-MB-435
DU-145 prostate = tested on: DU-145 prostate
SK-MEL-5 melanoma = tested on: SK-MEL-5 melanoma
OVCAR-5 ovarian = tested on: OVCAR-5 ovarian
NCI-H226 lung = tested on: NCI-H226 lung
UO-31 renal = tested on: UO-31 renal
SF-539 CNS = tested on: SF-539 CNS
HS 578T breast = tested on: HS 578T breast
A498 renal = tested on: A498 renal
U251 CNS = tested on: U251 CNS
SNB-75 CNS = tested on: SNB-75 CNS
HCT-116 colon = tested on: HCT-116 colon
UACC-62 melanoma = tested on: UACC-62 melanoma
A549 NSCLC = tested on: A549 NSCLC
SF-295 CNS = tested on: SF-295 CNS
RXF 393 renal = tested on: RXF 393 renal
T-47D breast = tested on: T-47D breast
HOP-92 NSCLC = tested on: HOP-92 NSCLC
M14 melanoma = tested on: M14 melanoma
HOP-62 NSCLC = tested on: HOP-62 NSCLC
CAKI-1 renal = tested on: CAKI-1 renal
MCF7 breast = tested on: MCF7 breast
COLO 205 colon = tested on: COLO 205 colon
NCI-H522 lung = tested on: NCI-H522 lung
NCI/ADR-RES ovarian = tested on: NCI/ADR-RES ovarian
HCC-2998 colon = tested on: HCC-2998 colon
SK-OV-3 ovarian = tested on: SK-OV-3 ovarian
UACC-257 melanoma = tested on: UACC-257 melanoma
PC-3 prostate = tested on: PC-3 prostate
SK-MEL-28 melanoma = tested on: SK-MEL-28 melanoma
OVCAR-8 ovarian = tested on: OVCAR-8 ovarian
HCT-15 colon = tested on: HCT-15 colon
TK-10 renal = tested on: TK-10 renal
NCI-H23 lung = tested on: NCI-H23 lung
EKVX NSCLC = tested on: EKVX NSCLC
IGROV1 ovarian = tested on: IGROV1 ovarian
SK-MEL-2 melanoma = tested on: SK-MEL-2 melanoma
LOX IMVI melanoma = tested on: LOX IMVI melanoma
MOLT-4 leukemia = tested on: MOLT-4 leukemia
OVCAR-4 ovarian = tested on: OVCAR-4 ovarian
ACHN renal = tested on: ACHN renal
SF-268 CNS = tested on: SF-268 CNS
MDA-MB-231 breast = tested on: MDA-MB-231 breast
MALME-3M melanoma = tested on: MALME-3M melanoma
KM12 colon = tested on: KM12 colon
NCI-H460 lung = tested on: NCI-H460 lung
OVCAR-3 ovarian = tested on: OVCAR-3 ovarian
SN12C renal = tested on: SN12C renal
RPMI-8226 leukemia = tested on: RPMI-8226 leukemia
HT29 colon = tested on: HT29 colon
SNB-19 CNS = tested on: SNB-19 CNS
MDA-N = tested on: MDA-N
SW-620 colon = tested on: SW-620 colon
K-562 leukemia = tested on: K-562 leukemia
CCRF-CEM leukemia = tested on: CCRF-CEM leukemia
HL-60(TB) leukemia = tested on: HL-60(TB) leukemia

Structure (SMILES): O=C(NC/C(Cl)=C/Cl)Nc1c2ccccc2nc2ccccc12
- TGI (786-0 renal): > 100 µM
- TGI (SR leukemia): > 100 µM
- TGI (MDA-MB-435): > 100 µM
- TGI (DU-145 prostate): > 100 µM
- TGI (SK-MEL-5 melanoma): > 100 µM
- TGI (OVCAR-5 ovarian): > 100 µM
- TGI (NCI-H226 lung): > 100 µM
- TGI (UO-31 renal): > 100 µM
- TGI (SF-539 CNS): 93.2 µM
- TGI (HS 578T breast): > 100 µM
- TGI (A498 renal): > 100 µM
- TGI (U251 CNS): > 100 µM
- TGI (SNB-75 CNS): > 100 µM
- TGI (HCT-116 colon): > 100 µM
- TGI (UACC-62 melanoma): > 100 µM
- TGI (A549 NSCLC): > 100 µM
- TGI (SF-295 CNS): > 100 µM
- TGI (RXF 393 renal): > 100 µM
- TGI (T-47D breast): > 100 µM
- TGI (HOP-92 NSCLC): > 100 µM
- TGI (M14 melanoma): > 100 µM
- TGI (HOP-62 NSCLC): > 100 µM
- TGI (CAKI-1 renal): > 100 µM
- TGI (MCF7 breast): > 100 µM
- TGI (COLO 205 colon): > 100 µM
- TGI (NCI-H522 lung): > 100 µM
- TGI (NCI/ADR-RES ovarian): > 100 µM
- TGI (HCC-2998 colon): > 100 µM
- TGI (SK-OV-3 ovarian): > 100 µM
- TGI (UACC-257 melanoma): > 100 µM
- TGI (PC-3 prostate): > 100 µM
- TGI (SK-MEL-28 melanoma): > 100 µM
- TGI (OVCAR-8 ovarian): > 100 µM
- TGI (HCT-15 colon): > 100 µM
- TGI (TK-10 renal): > 100 µM
- TGI (NCI-H23 lung): > 100 µM
- TGI (EKVX NSCLC): > 100 µM
- TGI (IGROV1 ovarian): > 100 µM
- TGI (SK-MEL-2 melanoma): > 100 µM
- TGI (LOX IMVI melanoma): > 100 µM
- TGI (MOLT-4 leukemia): > 100 µM
- TGI (OVCAR-4 ovarian): > 100 µM
- TGI (ACHN renal): > 100 µM
- TGI (SF-268 CNS): > 100 µM
- TGI (MDA-MB-231 breast): 80.1 µM
- TGI (MALME-3M melanoma): > 100 µM
- TGI (KM12 colon): > 100 µM
- TGI (NCI-H460 lung): > 100 µM
- TGI (OVCAR-3 ovarian): > 100 µM
- TGI (SN12C renal): > 100 µM
- TGI (RPMI-8226 leukemia): > 100 µM
- TGI (HT29 colon): > 100 µM
- TGI (SNB-19 CNS): > 100 µM
- TGI (MDA-N): > 100 µM
- TGI (SW-620 colon): > 100 µM

Structure (SMILES): CCN(CC)CCOCCn1c2c(c3ccccc31)CCCC2
- TGI (786-0 renal): 30 µM
- TGI (SR leukemia): 35.5 µM
- TGI (MDA-MB-435): 32.7 µM
- TGI (DU-145 prostate): 91.1 µM
- TGI (SK-MEL-5 melanoma): 26.3 µM
- TGI (OVCAR-5 ovarian): 41.3 µM
- TGI (NCI-H226 lung): 55.2 µM
- TGI (UO-31 renal): 36.8 µM
- TGI (SF-539 CNS): 32 µM
- TGI (HS 578T breast): 56.5 µM
- TGI (U251 CNS): 49.3 µM
- TGI (SNB-75 CNS): > 100 µM
- TGI (HCT-116 colon): 29.4 µM
- TGI (UACC-62 melanoma): 32.4 µM
- TGI (A549 NSCLC): 72.2 µM
- TGI (SF-295 CNS): > 100 µM
- TGI (T-47D breast): 52.9 µM
- TGI (HOP-92 NSCLC): 68.9 µM
- TGI (M14 melanoma): 31.3 µM
- TGI (HOP-62 NSCLC): 31.5 µM
- TGI (MCF7 breast): 35.2 µM
- TGI (COLO 205 colon): 39.1 µM
- TGI (NCI/ADR-RES ovarian): 33.3 µM
- TGI (HCC-2998 colon): 31 µM
- TGI (SK-OV-3 ovarian): 86.3 µM
- TGI (UACC-257 melanoma): 48.7 µM
- TGI (PC-3 prostate): 59.5 µM
- TGI (SK-MEL-28 melanoma): 40 µM
- TGI (OVCAR-8 ovarian): > 100 µM
- TGI (HCT-15 colon): 34.5 µM
- TGI (TK-10 renal): 38.5 µM
- TGI (NCI-H23 lung): > 100 µM
- TGI (EKVX NSCLC): > 100 µM
- TGI (IGROV1 ovarian): 60 µM
- TGI (SK-MEL-2 melanoma): 29.6 µM
- TGI (LOX IMVI melanoma): 37.3 µM
- TGI (MOLT-4 leukemia): 35.5 µM
- TGI (OVCAR-4 ovarian): > 100 µM
- TGI (ACHN renal): 41.9 µM
- TGI (SF-268 CNS): > 100 µM
- TGI (MDA-MB-231 breast): 35.1 µM
- TGI (MALME-3M melanoma): 29.3 µM
- TGI (KM12 colon): > 100 µM
- TGI (NCI-H460 lung): 39.1 µM
- TGI (OVCAR-3 ovarian): > 100 µM
- TGI (SN12C renal): 35.5 µM
- TGI (K-562 leukemia): 30.2 µM
- TGI (RPMI-8226 leukemia): 51.1 µM
- TGI (HT29 colon): 90.2 µM
- TGI (CCRF-CEM leukemia): 50.9 µM
- TGI (HL-60(TB) leukemia): 24.6 µM
- TGI (MDA-N): 31.1 µM
- TGI (SW-620 colon): 36.8 µM
